Among the data in patent US20080293771A1, “AZACYCLYLBENZAMIDE DERIVATIVES AS HISTAMINE-3 ANTAGONISTS” (Wyeth, priority 2007, published 2008) are melting point values, retold here.

Where a name gives a salt, the structure may show the parent alone.

Broadly, the melting point is the temperature, or range, at which the solid turns liquid. `CN(C(=O)c1ccc(-n2ncc3ccccc32)cc1)[C@@H]1CCN(C2CCCC2)C1` (as salt: hydrochloride) [Example 66, N-[(3R)-1-cyclopentylpyrrolidin-3-yl]-4-(1H-indazol-1-yl)-N-methylbenzamide]: the melting point lay in the range of 151 to 152 °C.
`Cc1nc2cc(C#N)ccc2n1-c1ccc(C(=O)N(C)[C@@H]2CCN(C3CCCC3)C2)cc1` (as salt: hydrochloride) [Example 56, 4-(5-cyano-2-methyl-1H-benzimidazol-1-yl)-N-[(3R)-1-cyclopentylpyrrolidin-3-yl]-N-methylbenzamide] gave a melting point of 185 to 187 °C.
For the compound `Cc1nc2ccccc2n1-c1ccc(C(=O)N(C)C2CCN(C3CCCC3)CC2)cc1F` (as salt: hydrochloride) [Example 120, N-(1-cyclopentylpiperidin-4-yl)-3-fluoro-N-methyl-4-(2-methyl-1H-benzimidazol-1-yl)benzamide], the melting point was 250 °C (dec.).
To `Cc1nc2ccccc2n1-c1ccc(C(=O)N(C)C2CCN(C3CCCCC3)CC2)cc1` (as salt: hydrochloride) [Example 33, N-(1-cyclohexylpiperidin-4-yl)-N-methyl-4-(2-methyl-1H-benzimidazol-1-yl)benzamide] belongs 285 °C (dec.).
For `CN(C(=O)c1ccc(Cn2ncc3ccccc32)cc1)C1CCN(C2CCC2)CC1` (as salt: hydrochloride) [Example 80, N-(1-cyclobutylpiperidin-4-yl)-4-(1H-indazol-1-ylmethyl)-N-methylbenzamide], the melting point fell in the range of 254 to 256 °C.
`CN(C(=O)c1ccc(-n2cc3ccccc3n2)cc1)[C@@H]1CCN(C2CCCC2)C1` (as salt: hydrochloride) [Example 63, N-[(3R)-1-cyclopentylpyrrolidin-3-yl]-4-(2H-indazol-2-yl)-N-methylbenzamide] registered a melting point of 216 to 218 °C.
In turn, `Cc1nc2cc(C#N)ccc2n1-c1ccc(C(=O)N(C)[C@@H]2CCN(C(C)C)C2)cc1` (as salt: hydrochloride) [Example 54, 4-(5-cyano-2-methyl-1H-benzimidazol-1-yl)-N-[(3R)-1-isopropylpyrrolidin-3-yl]-N-methylbenzamide] displayed a melting point of 230 to 232 °C.
The compound `Cc1nc2ccccc2n1-c1ccc(C(=O)N(C)[C@@H]2CCN(C(C)C)C2)cc1F` (as salt: hydrochloride) [Example 103, 3-fluoro-N-methyl-4-(2-methyl-1H-benzimidazol-1-yl)-N-[(3R)-1-(1-methylethyl)pyrrolidin-3-yl]benzamide] showed a melting point of 175 to 177 °C.
In turn, `CN(C(=O)c1ccc(Cn2cnc3ccccc32)cc1)C1CCN(C2CCC2)CC1` (as salt: hydrochloride) [Example 50, 4-(1H-benzimidazol-1-ylmethyl)-N-(1-cyclobutylpiperidin-4-yl)-N-methylbenzamide] showed a melting point of 238 to 240 °C.
For `CCN(C(=O)c1ccc(-n2c(C)nc3ccccc32)cc1)[C@@H]1CCN(C2CCCCC2)C1` (as salt: hydrochloride) [Example 142, N-[(3R)-1-cyclohexylpyrrolidin-3-yl]-N-ethyl-4-(2-methyl-1H-benzimidazol-1-yl)benzamide], the melting point was in the range of 177 to 179 °C.
Compound `Cc1nc2ccccc2n1Cc1ccc(C(=O)N(C)C2CCN(C(C)C)CC2)c2ccccc12` (as salt: hydrochloride) [Example 144b, N-(1-isopropylpiperidin-4-yl)-N-methyl-4-((2-methyl-1H-benzo[d]imidazol-1-yl)methyl)-1-naphthamide] displayed a melting point of 153 to 155 °C.
As to `Cc1nc2ccccc2n1-c1ccc(C(=O)N(C)[C@@H]2CCN(CC3CC3)C2)cc1` (as salt: hydrochloride), the melting point is 185 to 186 °C.
The result for `CN(C(=O)c1ccc(Cn2cccn2)cc1)C1CCN(C2CCCC2)CC1` (as salt: hydrochloride) [Example 93, N-(1-cyclopentylpiperidin-4-yl)-N-methyl-4-(1H-pyrazol-1-ylmethyl)benzamide] reads 250 °C (dec.).
The compound `CC(C)N1CC[C@@H](N(C)C(=O)c2ccc(-n3ncc4ccccc43)cc2)C1` (as salt: hydrochloride) [Example 64, 4-(1H-indazol-1-yl)-N-[(3R)-1-isopropylpyrrolidin-3-yl]-N-methylbenzamide] came in with a melting point of 175 to 177 °C.
Turning to `CN(C(=O)c1ccc(Cn2cnc3ccccc32)cc1)[C@@H]1CCNC1` (as salt: hydrochloride) [Example 36, (R)-4-((1H-benzo[d]imidazol-1-yl)methyl)-N-methyl-N-(pyrrolidin-3-yl)benzamide Hydrochloride], the melting point lay within 150 to 152 °C.
Consider `Cc1nc2ccccc2n1-c1ccc(C(=O)N(C)C2CCN(C(C)C)CC2)c(Cl)c1` (as salt: hydrochloride) [Example 121, 2-chloro-N-methyl-4-(2-methyl-1H-benzimidazol-1-yl)-N-[1-(1-methylethyl)piperidin-4-yl]benzamide], for which the melting point was 250 °C (dec.).
`Cc1cc(C(=O)N(C)[C@@H]2CCN(C3CCC3)C2)ccc1-n1c(C)nc2ccccc21` (as salt: hydrochloride) [Example 108, N-[(3R)-1-cyclobutylpyrrolidin-3-yl]-N,3-dimethyl-4-(2-methyl-1H-benzimidazol-1-yl)benzamide] had a melting point of 164 to 166 °C.
The result for `CC(C)N1CCC(N(C)C(=O)c2ccc(Cn3cnc4ccccc43)cc2)CC1` (as salt: hydrochloride) [Example 49, 4-(1H-benzimidazol-1-ylmethyl)-N-(1-isopropylpiperidin-4-yl)-N-methylbenzamide] reads 185 to 187 °C.
For the compound `CC(C)N1CCC(N(C)C(=O)c2ccc(-n3cc4ccccc4n3)cc2)CC1` (as salt: hydrochloride) [Example 69, 4-(2H-indazol-2-yl)-N-(1-isopropylpiperidin-4-yl)-N-methylbenzamide], the melting point was in the range of 166 to 168 °C.
With `Cc1nc2ccccc2n1-c1ccc(C(=O)N(C)[C@@H]2CCN(CC3CCCC3)C2)cc1` (as salt: hydrochloride), the melting point is 190 to 192 °C.
Take `Cc1nc2ccccc2n1-c1ccc(C(=O)N(C)[C@@H]2CCN(C3CCC3)C2)cc1F` (as salt: hydrochloride) [Example 104, N-[(3R)-1-cyclobutylpyrrolidin-3-yl]-3-fluoro-N-methyl-4-(2-methyl-1H-benzimidazol-1-yl)benzamide]: the melting point was in the range of 164 to 166 °C.
In turn, `Cc1nc2ccccc2n1-c1ccc(C(=O)N(C)[C@@H]2CCN(C(C)C)C2)c(Cl)c1` (as salt: hydrochloride) [Example 105, 2-chloro-N-methyl-4-(2-methyl-1H-benzimidazol-1-yl)-N-[(3R)-1-(1-methylethyl)pyrrolidin-3-yl]benzamide] had a melting point of 204 to 205 °C.
To `CN(C(=O)c1ccc(-n2cc3ccccc3n2)cc1)C1CCN(C2CCCC2)CC1` (as salt: hydrochloride) [Example 71, N-(1-cyclopentylpiperidin-4-yl)-4-(2H-indazol-2-yl)-N-methylbenzamide] belongs 283 to 285 °C; to `CC(C)N1CCC(N(C)C(=O)c2ccc(-n3cccn3)cc2)CC1` (as salt: hydrochloride) [Example 85, N-(1-isopropylpiperidin-4-yl)-N-methyl-4-(1H-pyrazol-1-yl)benzamide], 285 to 286 °C.
